In patent publication US20230130766A1 (SALK INSTITUTE FOR BIOLOGICAL STUDIES, priority 2020, published 2023):

Target: T1, ULK1 (Homo sapiens, UniProt O75385)
T1 sequence (O75385 1-1050): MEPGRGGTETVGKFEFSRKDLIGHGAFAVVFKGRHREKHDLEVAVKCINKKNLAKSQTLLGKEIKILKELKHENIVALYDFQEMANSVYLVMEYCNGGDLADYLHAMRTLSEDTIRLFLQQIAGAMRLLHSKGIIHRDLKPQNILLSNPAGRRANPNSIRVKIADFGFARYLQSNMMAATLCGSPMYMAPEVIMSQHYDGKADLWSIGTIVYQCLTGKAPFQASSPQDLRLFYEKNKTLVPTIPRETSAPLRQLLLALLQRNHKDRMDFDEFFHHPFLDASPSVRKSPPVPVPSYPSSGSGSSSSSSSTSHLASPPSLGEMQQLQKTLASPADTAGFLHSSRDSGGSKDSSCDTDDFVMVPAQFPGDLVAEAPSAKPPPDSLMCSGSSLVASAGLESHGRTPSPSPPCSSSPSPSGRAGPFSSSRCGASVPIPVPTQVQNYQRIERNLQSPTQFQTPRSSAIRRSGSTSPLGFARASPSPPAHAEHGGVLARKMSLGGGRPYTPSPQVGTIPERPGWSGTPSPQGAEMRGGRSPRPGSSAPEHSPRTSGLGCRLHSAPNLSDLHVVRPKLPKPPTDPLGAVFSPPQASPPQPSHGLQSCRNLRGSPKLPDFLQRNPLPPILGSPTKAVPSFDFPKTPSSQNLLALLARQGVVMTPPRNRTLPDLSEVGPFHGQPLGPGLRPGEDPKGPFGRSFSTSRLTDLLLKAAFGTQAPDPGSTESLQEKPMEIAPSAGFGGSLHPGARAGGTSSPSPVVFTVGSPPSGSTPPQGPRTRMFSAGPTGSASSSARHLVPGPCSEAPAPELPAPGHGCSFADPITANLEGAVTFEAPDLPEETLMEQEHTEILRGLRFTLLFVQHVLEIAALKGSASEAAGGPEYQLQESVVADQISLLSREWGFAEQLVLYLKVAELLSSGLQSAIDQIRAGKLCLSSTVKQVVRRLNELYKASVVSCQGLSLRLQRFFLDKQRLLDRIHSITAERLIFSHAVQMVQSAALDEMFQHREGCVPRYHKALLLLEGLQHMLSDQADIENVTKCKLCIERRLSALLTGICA
Assay: ULK1 inhibition assay
Format: biochemical
Conditions: * = tested as a mixture of regioisomers

Row | Structure (SMILES) | IC50 [nM]
1 | CNC(=O)c1ccccc1Oc1nc(Nc2cc(OC)ccc2OC)ncc1C(F)(F)F [Compound 109a] | > 2000
2 | COc1ccc(OC)c(Nc2ncc(C(F)(F)F)c(O)n2)c1 [Compound 109b] | > 2000
3 | CNC(=O)c1ccccc1Oc1nc(Nc2ccccc2)ncc1Br [Compound 111] | > 2000
4 | CNC(=O)c1ccccc1Oc1nc(Nc2cc(Br)ccc2C)ncc1Br [Compound 112] | > 2000
5 | CNC(=O)c1ccccc1Oc1nc(Nc2cccc(F)c2F)ncc1C(F)(F)F [Compound 113] | > 2000
6 | Clc1cnc(Nc2ccccc2)nc1Nc1ccccc1 [Compound 114] | > 2000
7 | CNC(=O)c1ccccc1Oc1nc(Nc2cccc(OC)c2OC)ncc1C(F)(F)F [Compound 115a] | > 2000
8 | COc1cccc(Nc2ncc(C(F)(F)F)c(O)n2)c1OC [Compound 115b] | > 2000
9 | CNC(=O)c1ccccc1Oc1nc(Nc2ccccc2SC)ncc1C(F)(F)F [Compound 116a] | > 2000
10 | CSc1ccccc1Nc1ncc(C(F)(F)F)c(Nc2ccccc2SC)n1 [Compound 116b] | > 2000
11 | CNC(=O)c1ccccc1Sc1nc(Nc2cc(OC)ccc2C)ncc1C(F)(F)F [Compound 117] | > 2000
12 | O=C1CCc2cc(Nc3ncc(C(F)(F)F)c(Nc4ccccc4N4CCOCC4)n3)ccc2N1 [Compound 118a] | < 200
13 | O=C1CCc2cc(Nc3nc(Nc4ccccc4N4CCOCC4)ncc3C(F)(F)F)ccc2N1 [Compound 118b] | > 2000
14 | Oc1ncc(C(F)(F)F)c(Nc2ccccc2N2CCOCC2)n1 [Compound 118c] | > 2000
15 | COc1cccc(Nc2nc(Nc3ccc4c(c3)CCC(=O)N4)ncc2C(F)(F)F)c1 [Compound 119] | < 200
16 | O=C1CCc2cc(Nc3ncc(C(F)(F)F)c(Nc4ccccc4OC(F)F)n3)ccc2N1 [Compound 120a] | < 200
17 | O=C1CCc2cc(Nc3ncc(C(F)(F)F)c(Nc4ccc5c(c4)CCC(=O)N5)n3)ccc2N1 [Compound 120c] | < 200
18 | COc1cc(N2CCOCC2)ccc1Nc1nc(Nc2ccc3c(c2)CCC(=O)N3)ncc1C(F)(F)F [Compound 123a] | < 200
19 | COc1cc(N2CCOCC2)ccc1Nc1ncc(C(F)(F)F)c(Nc2ccc3c(c2)CCC(=O)N3)n1 [Compound 123b] | < 200
20 | FC(F)(F)c1cnc(Nc2ccc3c(c2)OCO3)nc1Nc1ccc2c(c1)OCO2 [Compound 124c] | < 200
21 | Cc1ccc(Nc2nc(Nc3ccc4c(c3)CCC(=O)N4)ncc2C(F)(F)F)cc1C [Compound 125] | < 200
22 | CNC(=O)c1cccc(Nc2nc(Nc3ccc4c(c3)CCC(=O)N4)ncc2C(F)(F)F)c1 [Compound 128] | < 200
23 | O=C1CCc2cc(Nc3ncc(C(F)(F)F)c(Nc4ccc5c(c4)CCC5)n3)ccc2N1 [Compound 129] | < 200
24 | O=C1CCc2cc(Nc3ncc(C(F)(F)F)c(NC4Cc5ccccc5C4)n3)ccc2N1 [Compound 130a] | < 200
25 | O=C1CCc2cc(Nc3nc(NC4Cc5ccccc5C4)ncc3C(F)(F)F)ccc2N1 [Compound 130b] | > 2000

Row | Structure (SMILES) | IC50 [nM]
26 | O=C1CCc2cc(Nc3ncc(C(F)(F)F)c(NC4CC4)n3)ccc2N1 [Compound 131a] | < 200
27 | O=C1CCc2cc(Nc3nc(NC4CC4)ncc3C(F)(F)F)ccc2N1 [Compound 131b] | < 200
28 | CC(=O)Nc1ccc(Nc2nc(Nc3ccc4c(c3)CCC(=O)N4)ncc2C(F)(F)F)cc1 [Compound 132] | < 200
29 | COc1cccc(Nc2nc(Nc3ccc4c(c3)OCCO4)ncc2C(F)(F)F)c1 [Compound 133] | < 200
30 | O=C1CCc2cc(Nc3ncc(Cl)c(Nc4ccc5c(c4)CCC(=O)N5)n3)ccc2N1 [Compound 134] | < 200
31 | COc1cnc(Nc2ccc3c(c2)CCC(=O)N3)nc1Nc1ccc2c(c1)CCC(=O)N2 [Compound 135] | > 2000
32 | Fc1c(Nc2ncc(C(F)(F)F)c(Nc3ccc4c(c3)OCO4)n2)cccc1C(F)(F)F [Compound 141a] | > 2000
33 | Fc1c(Nc2nc(Nc3ccc4c(c3)OCO4)ncc2C(F)(F)F)cccc1C(F)(F)F [Compound 141b] | < 200
34 | COc1cccc(Nc2nc(Nc3ccc4c(c3)CCC(=O)N4)ncc2Br)c1 [Compound 142] | < 200
35 | COc1cccc(Nc2nc(Nc3ccc4c(c3)CCC(=O)N4)ncc2Cl)c1 [Compound 143a] | < 200
36 | COc1cccc(Nc2ncc(Cl)c(Nc3cccc(OC)c3)n2)c1 [Compound 143b] | < 200
37 | O=C1CCc2cc(Nc3ncc(C(F)(F)F)c(NC4CCC4)n3)ccc2N1 [Compound 150a] | < 200
38 | O=C1CCc2cc(Nc3nc(NC4CCC4)ncc3C(F)(F)F)ccc2N1 [Compound 150b] | < 200
39 | COCCNc1nc(Nc2ccc3c(c2)CCC(=O)N3)ncc1C(F)(F)F [Compound 151a] | < 200
40 | COCCNc1ncc(C(F)(F)F)c(Nc2ccc3c(c2)CCC(=O)N3)n1 [Compound 151b] | < 200
41 | FC(F)(F)c1cnc(Nc2cnc3[nH]ccc3c2)nc1NC1CC1 [Compound 152a] | < 200
42 | CS(=O)(=O)c1cccc(CNc2nc(Nc3ccc4[nH]ccc4c3)ncc2Br)c1 [Compound 153] | > 2000
43 | Brc1cnc(Nc2ccc3[nH]ccc3c2)nc1Nc1ccccn1 [Compound 154] | < 200
44 | O=C1CCc2cc(Nc3ncc(Br)c(Nc4ccccn4)n3)ccc2N1 [Compound 155] | < 200
45 | COc1ccc(Nc2nc(Nc3ccc4c(c3)CCC(=O)N4)ncc2Br)cn1 [Compound 156] | < 200
46 | FC(F)(F)c1cnc(Nc2ccc3c(c2)OCCO3)nc1NC1CC1 [Compound 158a] | < 200
47 | FC(F)(F)c1cnc(NC2CC2)nc1Nc1ccc2c(c1)OCCO2 [Compound 158b] | < 200
48 | O=C1CCc2cc(Nc3ncc(Br)c(NC4CC4)n3)ccc2N1 [Compound 159] | < 200
49 | O=C1CCc2cc(Nc3ncc(C(F)(F)F)c(NC4CCCC4)n3)ccc2N1 [Compound 160a] | < 200
50 | FC(F)(F)c1cnc(Nc2cnc3[nH]ccc3c2)nc1NC1CCC1 [Compound 161a] | < 200

Row | Structure (SMILES) | IC50 [nM]
51 | FC(F)(F)c1cnc(NC2CCC2)nc1Nc1cnc2[nH]ccc2c1 [Compound 161b] | < 200
52 | FC(F)(F)c1cnc(NC2Cc3ccccc3C2)nc1Nc1ccc2c(c1)OCO2 [Compound 163a] | > 2000
53 | FC(F)(F)c1cnc(Nc2ccc3c(c2)OCO3)nc1NC1Cc2ccccc2C1 [Compound 163b] | > 2000
54 | FC(F)(F)c1cnc(N2CCCC2)nc1Nc1ccc2c(c1)OCO2 [Compound 164a] | > 2000
55 | FC(F)(F)c1cnc(N2CCC2)nc1Nc1ccc2c(c1)OCO2 [Compound 166a] | > 2000
56 | FC(F)(F)c1cnc(Nc2ccc3c(c2)OCO3)nc1N1CCC1 [Compound 166b] | < 200
57 | FC(F)(F)c1cnc(NCC2CC2)nc1Nc1ccc2c(c1)OCO2 [Compound 167a] | < 200
58 | FC(F)(F)c1cnc(Nc2ccc3c(c2)OCO3)nc1NCC1CC1 [Compound 167b] | < 200
59 | FC(F)(F)c1cnc(NC2CCC2)nc1Nc1ccc2c(c1)OCO2 [Compound 168a] | < 200
60 | FC(F)(F)c1cnc(NC2CC2)nc1NC1CC1 [Compound 169] | > 2000
61 | CNC(=O)c1ccccc1Oc1nc(Nc2cc(OC)ccc2C)ncc1Br [Compound 170] | > 2000
62 | COc1cc(Nc2ncc(Br)c(N(C)C(=O)c3ccccc3O)n2)cc(OC)c1OC [Compound 171b] | < 200
63 | CCCCOc1nc(Nc2cc(OC)c(OC)c(OC)c2)ncc1Br [Compound 173] | < 200
64 | Brc1cnc(Nc2cnc3[nH]ccc3c2)nc1NC1CC1 [Compound 174] | < 200
65 | O=C1CCc2cc(Nc3ncc(C(F)(F)F)c(OC4CCC4)n3)ccc2N1 [Compound 175] | < 200
66 | FC(F)(F)c1cnc(Nc2cnc3[nH]ccc3c2)nc1Nc1ccc2c(c1)OCO2 [Compound 177] | < 200
67 | O=C1CCc2cc(Nc3ncc(C(F)(F)F)c(Nc4ccc5c(c4)OC(F)(F)O5)n3)ccc2N1 [Compound 178a] | < 200
68 | O=C1CCc2cc(Nc3nc(Nc4ccc5c(c4)OC(F)(F)O5)ncc3C(F)(F)F)ccc2N1 [Compound 178b] | < 200
69 | O=C1CCc2cc(Nc3ncc(C(F)(F)F)c(OC4Cc5ccccc5C4)n3)ccc2N1 [Compound 180a] | < 200
70 | O=C1CCc2cc(Nc3nc(OC4Cc5ccccc5C4)ncc3C(F)(F)F)ccc2N1 [Compound 180b] | > 2000
71 | FC(F)(F)c1cnc(Nc2cnc3[nH]ccc3c2)nc1Nc1ccccc1 [Compound 181a] | < 200
72 | CNc1nc(Nc2cnc3[nH]ccc3c2)ncc1C(F)(F)F [Compound 182a] | < 200
73 | CC1CN1c1nc(Nc2ccc3c(c2)CCC(=O)N3)ncc1C(F)(F)F (stereo not shown) [Compound 183a] | > 2000
